Four molecules from US20230024521A1, “JAK INHIBITORS” (Vimalan Biosciences, Inc., priority 2019, published 2023) can be followed below.

Molecules are shown by their SMILES.

The target in the test is T1, JAK3 (Homo sapiens, UniProt P52333).
T1 sequence (P52333 1-1124): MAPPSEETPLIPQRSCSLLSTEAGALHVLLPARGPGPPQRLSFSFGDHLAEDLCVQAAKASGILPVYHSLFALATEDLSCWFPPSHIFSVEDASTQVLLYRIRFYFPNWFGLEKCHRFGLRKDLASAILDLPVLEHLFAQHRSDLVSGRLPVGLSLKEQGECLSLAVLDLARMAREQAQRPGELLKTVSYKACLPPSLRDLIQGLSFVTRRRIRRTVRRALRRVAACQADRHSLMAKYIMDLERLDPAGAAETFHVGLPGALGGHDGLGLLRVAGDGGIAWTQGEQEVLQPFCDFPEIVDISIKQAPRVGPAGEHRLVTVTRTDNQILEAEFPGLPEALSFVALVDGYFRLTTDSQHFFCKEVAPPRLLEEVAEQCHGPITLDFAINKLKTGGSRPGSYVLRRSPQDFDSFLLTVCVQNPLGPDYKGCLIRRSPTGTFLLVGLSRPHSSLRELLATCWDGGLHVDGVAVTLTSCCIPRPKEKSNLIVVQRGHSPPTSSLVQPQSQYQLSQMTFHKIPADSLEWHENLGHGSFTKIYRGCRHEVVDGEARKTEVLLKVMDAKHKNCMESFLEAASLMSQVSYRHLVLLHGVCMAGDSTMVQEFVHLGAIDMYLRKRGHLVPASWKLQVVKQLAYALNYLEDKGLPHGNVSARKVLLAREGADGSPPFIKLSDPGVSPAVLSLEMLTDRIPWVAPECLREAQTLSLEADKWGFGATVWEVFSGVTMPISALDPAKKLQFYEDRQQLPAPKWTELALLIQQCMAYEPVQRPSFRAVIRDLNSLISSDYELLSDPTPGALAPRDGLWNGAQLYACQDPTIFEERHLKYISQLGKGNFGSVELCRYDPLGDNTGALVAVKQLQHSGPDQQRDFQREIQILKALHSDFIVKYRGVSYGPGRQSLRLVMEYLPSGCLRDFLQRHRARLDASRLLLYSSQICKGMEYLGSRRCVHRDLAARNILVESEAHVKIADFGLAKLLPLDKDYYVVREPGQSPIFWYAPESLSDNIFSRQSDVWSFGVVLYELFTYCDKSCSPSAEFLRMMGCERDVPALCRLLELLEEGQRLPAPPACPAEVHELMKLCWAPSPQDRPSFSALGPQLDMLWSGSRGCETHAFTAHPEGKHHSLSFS
The test can be described thus: JAK/TYK2 assay (Kinase Glo luminescence): Jak3 kinase assay. Format: biochemical. To be noted: 1.5 nM enzyme, 2 uM ATP, 4 uM pEY, 1 hr; read-out: Jak3 kinase assay: IC50 Geomean. How it is done: Example A: JAK/TYK2 Assay 10 mM test compound stock or 1 mM control compound stock (tofocitinib, ruxolitinib or staurosporine) in DMSO was diluted to 0.4 mM in DMSO. A 3-fold series dilution was then performed in DMSO to generate 10 different compound concentrations. The assay was carried out in 384-well white plate. 0.5 μL of 40× compound DMSO solution at different concentrations was mixed with 10 uL 2× enzyme prepared in reaction buffer (20 mM HEPES, 10 mM MgCl2, 0.01% Tween, 1 mM DTT, pH 7.5). 10 uL 2× substrate mixture prepared in reaction buffer was then added to start the reaction. A short spin was done to settle down all solutions to the bottom of the plate. Final concentrations of test compound in the reaction mixture were 10000, 3333, 1111, 370, 123, 41.2, 13.7, 4.57, 1.52 and 0.51 nM, Concentrations of control compound were ten times less. Enzymatic reaction was conducted at 25° C. for 1-2 hours. 10 uL of Kinase Glo Reagents was added to stop the reaction and generate the luminescent signal which was measured using Envision. Luminescence signal was inversely related to kinase activity. […] The mixture without any compound was the positive control. [table]
In general terms: Kinase-Glo measures the ATP left after a reaction by luminescence.
One may read the IC50 as the concentration that gives 50% inhibition. For `CC[C@H](Cn1ccc2cnc(Nc3cnn(CC(N)=O)c3)nc21)C(C)C` [Example 1, (S)-2-(4-((7-(2-ethyl-3-methylbutyl)-7H-pyrrolo[2,3-d]pyrimidin-2-yl)amino)-1H-pyrazol-1-yl) acetamide], the concentration for half-maximal inhibition (IC50) was < 100 nM.

On to `CC[C@H](Cn1ccc2cnc(Nc3cnn(CC(=O)N4CCOC4=O)c3)nc21)C(C)C` [Example 3, (5)-3-(2-(4-((7-(2-ethyl-3-methylbutyl)-7H-pyrrolo[2,3-d]pyrimidin-2-yl)amino)-1H-pyrazol-1-yl)acetyl) oxazolidin-2-one], for which the IC50 was < 100 nM.

Consider `CCC(CC)Cn1ccc2cnc(Nc3cnn(CC(N)=O)c3)nc21` [Example 7, 2-(4-((7-(2-ethylbutyl)-7H-pyrrolo[2,3-d]pyrimidin-2-yl)amino)-1H-pyrazol-1-yl) acetamide], for which the half-inhibitory concentration (IC50) is < 100 nM.

Turning to `CC[C@@H](Cn1ccc2cnc(Nc3cnn(C4CCNC4=O)c3)nc21)C(C)C` (stereo partly shown) [Example 8], the concentration for half-maximal inhibition (IC50) was < 100 nM.
